Source: publication PMC2706954, “Dissecting Structural and Functional Diversity of the Lantibiotic Mersacidin” (Chemistry & Biology, 2009)
Converted amounts (≈) assume the structure as drawn. “And” between values parts separate entries of the source, which are not always exact repeats. Equal entries are not always repeated. Where two headings read alike, the source gives them in different places. Where no end group is shown, it is not given here.

What was measured:
[1] = system: panel of microorganisms (target strains); assay: MIC determination against the panel of microorganisms (target strains); format: cell-based; conditions: comparison with mersacidin or with parent single mutants
Method: Partially purified fermentation samples from clones expressing highly produced variants were assayed for antimicrobial activity against M. luteus. Samples were fractionated to eliminate interfering bioactive compounds produced by the host strain and were bioassayed (see Supplemental Data available online). Selected mersacidin variants with antibacterial activity against M. luteus were produced at larger scale for quantitative studies (2 l). The mersacidin variants were purified and assayed against a panel of microorganisms to determine the MIC values.
(§1) Antibacterial activity of fermentation samples or purified samples was determined by Mueller-Hinton Agar diffusion bioassays using M. luteus ATCC 4698 as the indicator strain. Susceptibility testing (minimum inhibitory concentration [MIC]) for all aerobic organisms, with the exception of S. pneumoniae, was performed following the recommendations of CLSI. Susceptibility testing of S. pneumoniae was performed by two-fold serial dilutions in brain-heart-infusion broth supplemented with 50 μg/ml Ca^2+. Vancomycin was used as a reference antibiotic, and plates were incubated aerobically, with shaking, for 18–20 hr at 37°C with the MIC defined as the lowest concentration of drug that prevented visible growth.

[2] = system: methicillin-resistant Staphylococcus aureus (MRSA); conditions: administered subcutaneously; at concentrations comparable to vancomycin; ref Chatterjee et al., 1992b; cited from earlier work
Description: (§2) Mersacidin has antibacterial activity against Gram-positive pathogens; like vancomycin, it binds to the peptidoglycan precursor lipid II ([Brotz et al., 1995; Brotz et al., 1997]).

MRSA = conditions: ref Kruszewska et al., 2004; cited from earlier work
Description: as §2

M. luteus ATCC4698 = format: cell-based, Micrococcus luteus
Method: as §1

S. aureus R33 MRSA = format: cell-based, Staphylococcus aureus
Method: as §1

S. aureus SH1000 = format: cell-based, Staphylococcus aureus
Method: as §1

E. faecium ATCC19579 = format: cell-based
Method: as §1

E. faecium 7131121 VRE = format: cell-based
Method: as §1

S. epidermidis NCTC11047 = format: cell-based
Method: as §1

E. faecalis ATCC29212 = format: cell-based
Method: as §1

S. pneumoniae BAA-255 = format: cell-based, Streptococcus pneumoniae
Method: as §1

[3] = CLSI recommendations, incubated aerobically with shaking 18–20 hr at 37°C, MIC = lowest concentration preventing visible growth, purified variants
[4] = vancomycin-resistant clinical isolate, CLSI recommendations, 18–20 hr at 37°C, MIC = lowest concentration preventing visible growth
[5] = two-fold serial dilutions in brain-heart-infusion broth with 50 μg/ml Ca2+, 18–20 hr at 37°C, MIC = lowest concentration preventing visible growth

## V11I-L14I (CTFTLPGGGGICTITSECIC; also: mersacidin methyllanthionine thioether bridges, not placed, C-terminal decarboxylated Cys (2-thioethenamine); UniProt P43683 49-68, looked up, variant V11I L14I)
[1]
  antibacterial activity, in words, compared with parent: comparable to those of the parent mutants

## F3W-L14I (CTWTLPGGGGVCTITSECIC; also: mersacidin methyllanthionine thioether bridges, not placed, C-terminal decarboxylated Cys (2-thioethenamine); UniProt P43683 49-68, looked up, variant F3W L14I)
[1]
  antibacterial activity, in words, compared with parent: comparable to those of the parent mutants

## Mersacidin [reference compound]
[2]
  cure of abscesses in rats: cures
  cure of systemic MRSA infections in mice: cures
MRSA
  eradication of MRSA in a mouse rhinitis model: eradicates MRSA
M. luteus ATCC4698; [3]
  MIC M. luteus ATCC4698: 1 µg/mL and 2 µg/mL
S. aureus R33 MRSA; [3]
  MIC S. aureus R33 MRSA: 32 µg/mL
S. aureus SH1000; [3]
  MIC S. aureus SH1000: 32 µg/mL
E. faecium ATCC19579; [3]
  MIC E. faecium ATCC19579: 32 µg/mL
E. faecium 7131121 VRE; [4]
  MIC E. faecium 7131121 VRE: 64 µg/mL
S. epidermidis NCTC11047; [3]
  MIC S. epidermidis NCTC11047: 16 µg/mL and 32 µg/mL
E. faecalis ATCC29212; [3]
  MIC E. faecalis ATCC29212: 64 µg/mL
S. pneumoniae BAA-255; [5]
  MIC S. pneumoniae BAA-255: 2 µg/mL

## C=C1NC(=O)C2NC(=O)[C@H](CC(C)C)NC(=O)C(NC(=O)[C@@H]3CSC(C)C(NC(=O)[C@H](Cc4ccccc4)NC(=O)C4NC(=O)[C@@H](N)CSC4C)C(=O)N[C@@H](CC(C)C)C(=O)N4CCC[C@H]4C(=O)NCC(=O)NCC(=O)NCC(=O)N[C@@H](C(C)C)C(=O)N[C@@H](C(C)C)C(=O)N3)C(C)SC[C@H](NC(=O)[C@H](CCC(=O)O)NC1=O)C(=O)N[C@@H]([C@@H](C)CC)C(=O)NC=CSC2C (stereo partly shown) [G10V]
M. luteus ATCC4698; ATCC4698
  MIC M. luteus ATCC4698: < 4 µg/mL
S. aureus R33 MRSA; R33
  MIC S. aureus R33 MRSA: 64, >64 μg/ml
S. aureus SH1000; SH1000
  MIC S. aureus SH1000: >64 µg/mL
E. faecium ATCC19579; ATCC19579
  MIC E. faecium ATCC19579: >64 µg/mL
E. faecium 7131121 VRE; 7131121 VRE
  MIC E. faecium 7131121 VRE: >64 µg/mL
S. epidermidis NCTC11047; NCTC11047
  MIC S. epidermidis NCTC11047: 64 µg/mL (≈ 34.3 µM)
E. faecalis ATCC29212; ATCC29212
  MIC E. faecalis ATCC29212: >64 µg/mL
S. pneumoniae BAA-255; BAA-255
  MIC S. pneumoniae BAA-255: 16 µg/mL (≈ 8.56 µM)

## C=C1NC(=O)C2NC(=O)[C@H](CC(C)C)NC(=O)C(NC(=O)[C@@H]3CSC(C)C(NC(=O)[C@H](Cc4ccccc4)NC(=O)C4NC(=O)[C@@H](N)CSC4C)C(=O)N[C@@H](CC(C)C)C(=O)N4CCC[C@H]4C(=O)NCC(=O)N[C@@H](CC(N)=O)C(=O)NCC(=O)NCC(=O)N[C@@H](C(C)C)C(=O)N3)C(C)SC[C@H](NC(=O)[C@H](CCC(=O)O)NC1=O)C(=O)N[C@@H]([C@@H](C)CC)C(=O)NC=CSC2C (stereo partly shown) [G8N]
M. luteus ATCC4698; [3]
  MIC M. luteus ATCC4698: 8 µg/mL (≈ 4.25 µM)
S. aureus R33 MRSA; [3]
  MIC S. aureus R33 MRSA: 16 µg/mL and 32 µg/mL
S. aureus SH1000; [3]
  MIC S. aureus SH1000: >64 µg/mL
E. faecium ATCC19579; [3]
  MIC E. faecium ATCC19579: >64 µg/mL
E. faecium 7131121 VRE; [4]
  MIC E. faecium 7131121 VRE: >64 µg/mL
S. epidermidis NCTC11047; [3]
  MIC S. epidermidis NCTC11047: 64 µg/mL (≈ 34 µM)
E. faecalis ATCC29212; [3]
  MIC E. faecalis ATCC29212: >64 µg/mL
S. pneumoniae BAA-255; [5]
  MIC S. pneumoniae BAA-255: >64 µg/mL

## C=C1NC(=O)C2NC(=O)[C@H](CC(C)C)NC(=O)C(NC(=O)[C@@H]3CSC(C)C(NC(=O)[C@H](Cc4ccccc4)NC(=O)C4NC(=O)[C@@H](N)CSC4C)C(=O)N[C@@H](CC(C)C)C(=O)N4CCC[C@H]4C(=O)NCC(=O)NCC(=O)NCC(=O)N[C@@H](CC(N)=O)C(=O)N[C@@H](C(C)C)C(=O)N3)C(C)SC[C@H](NC(=O)[C@H](CCC(=O)O)NC1=O)C(=O)N[C@@H]([C@@H](C)CC)C(=O)NC=CSC2C (stereo partly shown) [G10N]
M. luteus ATCC4698; ATCC4698
  MIC M. luteus ATCC4698: 8 µg/mL (≈ 4.25 µM)
S. aureus R33 MRSA; R33
  MIC S. aureus R33 MRSA: 64, >64 μg/ml
S. aureus SH1000; SH1000
  MIC S. aureus SH1000: >64 µg/mL
E. faecium ATCC19579; ATCC19579
  MIC E. faecium ATCC19579: >64 µg/mL
E. faecium 7131121 VRE; 7131121 VRE
  MIC E. faecium 7131121 VRE: >64 µg/mL
S. epidermidis NCTC11047; NCTC11047
  MIC S. epidermidis NCTC11047: >64 µg/mL
E. faecalis ATCC29212; ATCC29212
  MIC E. faecalis ATCC29212: >64 µg/mL
S. pneumoniae BAA-255; BAA-255
  MIC S. pneumoniae BAA-255: >64 µg/mL

## CC[C@H](C)[C@@H]1NC(=O)[C@@H]2CSC(C)C(NC(=O)[C@@H]3CSC(C)C(NC(=O)[C@H](Cc4ccccc4)NC(=O)C4NC(=O)[C@@H](N)CSC4C)C(=O)N[C@@H](CC(C)C)C(=O)N4CCC[C@H]4C(=O)NCC(=O)NCC(=O)NCC(=O)NCC(=O)N[C@@H](C(C)C)C(=O)N3)C(=O)N[C@@H](CC(C)C)C(=O)NC(C(=O)N[C@@H](C)C(=O)N[C@@H](CCC(=O)O)C(=O)N2)C(C)SC=CNC1=O (stereo partly shown) [S16A]
M. luteus ATCC4698; ATCC4698
  MIC M. luteus ATCC4698: 2 µg/mL (≈ 1.09 µM)
S. aureus R33 MRSA; R33
  MIC S. aureus R33 MRSA: 16 µg/mL (≈ 8.75 µM)
S. aureus SH1000; SH1000
  MIC S. aureus SH1000: 64 µg/mL (≈ 35 µM)
E. faecium ATCC19579; ATCC19579
  MIC E. faecium ATCC19579: 32 µg/mL (≈ 17.5 µM)
E. faecium 7131121 VRE; 7131121 VRE
  MIC E. faecium 7131121 VRE: >64 µg/mL
S. epidermidis NCTC11047; NCTC11047
  MIC S. epidermidis NCTC11047: 32 µg/mL (≈ 17.5 µM)
E. faecalis ATCC29212; ATCC29212
  MIC E. faecalis ATCC29212: 64 µg/mL (≈ 35 µM)
S. pneumoniae BAA-255; BAA-255
  MIC S. pneumoniae BAA-255: 4 µg/mL (≈ 2.19 µM)

## C=C1NC(=O)C2NC(=O)[C@H](CC(C)C)NC(=O)C(NC(=O)[C@@H]3CSC(C)C(NC(=O)[C@H](Cc4ccccc4)NC(=O)C4NC(=O)[C@@H](N)CSC4C)C(=O)N[C@@H](CC(C)C)C(=O)N4CCC[C@H]4C(=O)NCC(=O)NCC(=O)NCC(=O)NCC(=O)N[C@@H]([C@@H](C)CC)C(=O)N3)C(C)SC[C@H](NC(=O)[C@H](CCC(=O)O)NC1=O)C(=O)N[C@@H]([C@@H](C)CC)C(=O)NC=CSC2C (stereo partly shown) [V11I]
M. luteus ATCC4698; ATCC4698
  MIC M. luteus ATCC4698: 0.5 µg/mL (≈ 0.272 µM)
S. aureus R33 MRSA; R33
  MIC S. aureus R33 MRSA: 16 µg/mL (≈ 8.69 µM)
S. aureus SH1000; SH1000
  MIC S. aureus SH1000: 32 µg/mL (≈ 17.4 µM)
E. faecium ATCC19579; ATCC19579
  MIC E. faecium ATCC19579: 16 µg/mL (≈ 8.69 µM)
E. faecium 7131121 VRE; 7131121 VRE
  MIC E. faecium 7131121 VRE: 16 µg/mL (≈ 8.69 µM)
S. epidermidis NCTC11047; NCTC11047
  MIC S. epidermidis NCTC11047: 16 µg/mL (≈ 8.69 µM)
E. faecalis ATCC29212; ATCC29212
  MIC E. faecalis ATCC29212: 16 µg/mL (≈ 8.69 µM)
S. pneumoniae BAA-255; BAA-255
  MIC S. pneumoniae BAA-255: 16 µg/mL (≈ 8.69 µM)

## CC=C1NC(=O)C2NC(=O)[C@H](CC(C)C)NC(=O)C(NC(=O)[C@@H]3CSC(C)C(NC(=O)[C@H](Cc4ccccc4)NC(=O)C4NC(=O)[C@@H](N)CSC4C)C(=O)N[C@@H](CC(C)C)C(=O)N4CCC[C@H]4C(=O)NCC(=O)NCC(=O)NCC(=O)NCC(=O)N[C@@H](C(C)C)C(=O)N3)C(C)SC[C@H](NC(=O)[C@H](CCC(=O)O)NC1=O)C(=O)N[C@@H]([C@@H](C)CC)C(=O)NC=CSC2C (stereo partly shown) [S16Db]
M. luteus ATCC4698; ATCC4698
  MIC M. luteus ATCC4698: 1 µg/mL (≈ 0.543 µM)
S. aureus R33 MRSA; R33
  MIC S. aureus R33 MRSA: 8 µg/mL (≈ 4.35 µM)
S. aureus SH1000; SH1000
  MIC S. aureus SH1000: 32 µg/mL (≈ 17.4 µM)
E. faecium ATCC19579; ATCC19579
  MIC E. faecium ATCC19579: 32 µg/mL (≈ 17.4 µM)
E. faecium 7131121 VRE; 7131121 VRE
  MIC E. faecium 7131121 VRE: 64 µg/mL (≈ 34.8 µM)
S. epidermidis NCTC11047; NCTC11047
  MIC S. epidermidis NCTC11047: 16 µg/mL (≈ 8.69 µM)
E. faecalis ATCC29212; ATCC29212
  MIC E. faecalis ATCC29212: 32 µg/mL (≈ 17.4 µM)
S. pneumoniae BAA-255; BAA-255
  MIC S. pneumoniae BAA-255: 32 µg/mL (≈ 17.4 µM)
